From US20250057837A1, “Methods for Treating HCV” (priority 2015, published 2025)

Assays:
[1] = tested on: resistance-associated variants in GT 1a (H77) replicon; assay: Activity against resistance-associated variants in GT 1a replicon; type: cell-based, hepatitis C virus
[2] = tested on: GT1a replicon NS3 A156T variant; assay: Resistant colony selection, GT1a subgenomic replicon cells; type: cell-based, hepatitis C virus; settings: A156T in GT1a
[3] = tested on: GT3a NS3 protease replicon A156G variant; assay: Resistant colony selection, replicon containing GT3a NS3 protease (A156G); type: cell-based, hepatitis C virus; settings: A156G alone
[4] = tested on: resistance-associated variants in GT 1b (Con-1) replicon; assay: Activity against resistance-associated variants in GT 1b replicon; type: cell-based, hepatitis C virus
[5] = type: in vivo, human; settings: for impact of HCV genotype and RBV coadministration on exposures: GT1-, GT2- or GT3-infected subjects
Excerpt: Blood samples for pharmacokinetic analysis were collected throughout the study treatment period.

[6] = tested on: GT3a NS3 protease replicon Q168R co-selected with Y56H; assay: Resistant colony selection, replicon containing GT3a NS3 protease (Q168R+Y56H); type: cell-based, hepatitis C virus
[7] = tested on: GT1b replicon NS3 A156V variant; assay: Resistant colony selection, GT1b subgenomic replicon cells; type: cell-based, hepatitis C virus; settings: A156V in GT1b
[8] = human, in vivo
[9] = Phase 1 drug-drug interaction with cyclosporine in healthy subjects; settings: coadministered with cyclosporine 100 mg
[10] = Phase 1 drug-drug interaction with tacrolimus in healthy subjects; settings: coadministered with tacrolimus 1 mg
[11] = Phase 1 single and multiple ascending dose and food effect study of Compound 2 in healthy subjects
Method: This was a blinded, randomized, placebo-controlled Phase 1 study. […] Safety and tolerability were assessed throughout the study.

With `CC(C)(C)[C@@H]1NC(=O)O[C@@H]2CCC[C@H]2OC/C=C/C(F)(F)c2nc3ccccc3nc2O[C@@H]2C[C@@H](C(=O)N[C@]3(C(=O)NS(=O)(=O)C4(C)CC4)C[C@H]3C(F)F)N(C2)C1=O` [Compound 1] the “inhibitory activity against NS3 resistance-associated variants” value ([1]; V36M, R155K, D168A and D168V in GT 1a (H77)) was “nearly equivalent to that against wild-type HCV replicon”, the “activity against variants at NS3 amino acid positions 155 and 168” value ([1]; common GT1a variants conferring resistance to other HCV protease inhibitors) was “retained its activity” and the “activity against NS5A inhibitor and NS5B inhibitor resistance-associated variants” value ([1]; e.g. M28T, M28V, Q30D, Q30R, Y93C, Y93H, Y93N, L31V+Y93H, C316Y, M414T, Y448C, Y448H, S556G and S559G in GT1a) was “potent activity”. The “reduced susceptibility conferred by variant” value [2] was 1400 fold, the “loss in susceptibility conferred by variant” value [3] was 1500 fold and the “inhibitory activity against NS3 resistance-associated variants” value ([4]; T54A, R155K, D168V and V170A in GT 1b (Con-1)) was “nearly equivalent to that against wild-type HCV replicon”. For the same compound, the “activity against variants at NS3 amino acid positions 155 and 168” value ([4]; common GT1b variants conferring resistance to other HCV protease inhibitors) was “retained its activity”, the “activity against NS5A inhibitor and NS5B inhibitor resistance-associated variants” value ([4]; e.g. L28T, Y93H, S282T, C316Y, Y448H and S556G in GT 1b) was “potent activity” and the “impact of HCV genotype and RBV coadministration on exposures” value [5] was “no impact”. The “impact of Compound 2 on Compound 1 exposures” value ([5]; coadministration) was “minimal impact”, the “loss in susceptibility conferred by variant” value [6] was 1100 fold and the “reduced susceptibility conferred by variant” value [7] was 1800 fold.
In the case of `C=CCN1CC[C@]23c4c5ccc(O)c4O[C@H]2C(=O)CC[C@@]3(O)[C@H]1C5` [naloxone], the “dose-normalized Cmax and AUCt, change” value [8] was ≤ 12%.
With `COC(=O)N[C@H](C(=O)N1CCC[C@H]1c1nc2cc([C@H]3CC[C@H](c4cc5nc([C@@H]6CCCN6C(=O)[C@@H](NC(=O)OC)[C@@H](C)OC)[nH]c5cc4F)N3c3cc(F)c(N4CCC(c5ccc(F)cc5)CC4)c(F)c3)c(F)cc2[nH]1)[C@@H](C)OC` [Compound 2] the “steady-state AUC24 in plasma, increase” value [9] was 22%, the “steady-state C24 in plasma, increase” value [9] was 26% and the “steady-state Cmax in plasma, increase” value [9] was 11%. The “steady-state Cmax, AUC24, and C24 in plasma, change” value [10] was ≤ 2%, the “severity of adverse events” value ([11]; SAD 1.5-600 mg, MAD 30-600 mg QD 10 days) was “mild” and the maximum tolerated dose ([11]; SAD and MAD portions) was “not reached”. For the same compound, the “impact of HCV genotype and RBV coadministration on exposures” value [5] was “no impact”.
